Results as given in patent US9193731B2, “Antimicrobial compounds and methods of making and using the same” (Melinta Therapeutics, Inc., priority 2009, dated 2015).

The compounds below were run on Escherichia coli strain ATCC25922 (assay: standard microdilution assay to determine minimum inhibitory concentrations (MICs)). Details: Escherichia coli strain ATCC25922, microdilution.
Assay type: cell-based
Procedure, shortened: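 E. coli strain ATCC25922 tested per CLSI microdilution methodology (about 100 microliters per well) to find minimum inhibitory concentrations. Activity scored categorically at a 16 micrograms/ml threshold.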

Compound	E. coli ATCC25922 MIC
CC(C)(CN)COc1cccc(-c2cc3cn(-c4ccc(CNCCCNC(=N)N)cc4)c(=O)nc3[nH]2)c1 [Compound 1327]	+ (a “+” indicates that the compound has an MIC value of 16 micrograms/ml or less)
NCCCNCc1ccc(-n2cc3cc(-c4cc(CN5CCS(=O)(=O)CC5)cc(N5CCNCC5)c4)[nH]c3nc2=O)cc1 [Compound 914]	− (a “−” indicates that the compound has an MIC value greater than 16 micrograms/ml)
N=C(N)NCCCNCc1ccc(-n2cc3cc(-c4cc(Cl)cc(CCCCN)c4)[nH]c3nc2=O)cc1 [Compound 2068a]	+ (a “+” indicates that the compound has an MIC value of 16 micrograms/ml or less)
N=C(N)NCCCNCc1ccc(-n2cc3cc(-c4cccc(S(=O)(=O)N(Cc5ccc6nonc6c5)C5CCNCC5)c4)[nH]c3nc2=O)cc1 [Compound 1076]	+ (a “+” indicates that the compound has an MIC value of 16 micrograms/ml or less)
N=C(N)NCCCNC(=O)c1ccc(-n2cc3cc(-c4ccc(S(=O)(=O)N(Cc5cc(OC(F)(F)F)ccc5F)C5CCNCC5)cc4)[nH]c3nc2=O)cc1 [Compound 1090]	+ (a “+” indicates that the compound has an MIC value of 16 micrograms/ml or less)
N=C(N)NCCCNCc1ccc(-n2cc3cc(-c4cc(CCCCN)ccc4Cl)[nH]c3nc2=O)cc1 [Compound 2073a]	+ (a “+” indicates that the compound has an MIC value of 16 micrograms/ml or less)
N=C(N)NCCCNCc1ccc(-n2cc3cc(-c4ccc(S(=O)(=O)N(Cc5csc(-c6ccc(C(F)(F)F)cc6)n5)C5CCNCC5)cc4)[nH]c3nc2=O)cc1 [Compound 786]	+ (a “+” indicates that the compound has an MIC value of 16 micrograms/ml or less)
N=C(N)NCCCNC(=O)c1ccc(-n2cc3cc(-c4ccc(S(=O)(=O)CCCNC5CCNC5)cc4)[nH]c3nc2=O)cc1 (stereo not shown) [Compound 1350]	+ (a “+” indicates that the compound has an MIC value of 16 micrograms/ml or less)
N=C(N)NC(=O)CCNCc1ccc(-n2cc3cc(-c4ccc(S(=O)(=O)NC5CCNCC5)cc4)[nH]c3nc2=O)cc1 [Compound 1173]	− (a “−” indicates that the compound has an MIC value greater than 16 micrograms/ml)
N=C(N)NCCCNCc1ccc(-n2cc3cc(CCS(=O)(=O)N(CCCc4ccccc4)C4CCNCC4)[nH]c3nc2=O)cc1 [Compound 990]	+ (a “+” indicates that the compound has an MIC value of 16 micrograms/ml or less)
N=C(N)NCCNC(=O)c1ccc(-n2cc3cc(-c4ccc(S(=O)(=O)NC5CCNCC5)cc4)[nH]c3nc2=O)cc1 [Compound 1048]	+ (a “+” indicates that the compound has an MIC value of 16 micrograms/ml or less)
N=C(N)NCCCNCc1ccc(-n2cc3cc(C4CN(CCCCN)CCO4)[nH]c3nc2=O)cc1 (stereo not shown) [Compound 1381]	+ (a “+” indicates that the compound has an MIC value of 16 micrograms/ml or less)
COc1cc(-n2cc3cc(-c4cccc(OCCCN)c4)[nH]c3nc2=O)ccc1CNCCCNC(=N)N [Compound 1273]	+ (a “+” indicates that the compound has an MIC value of 16 micrograms/ml or less)
N=C(N)NCCCOCc1ccc(-c2cn3cc(-c4ccc(C(=O)NC5CCNCC5)cc4)[nH]c3nc2=O)cc1 [Compound 928]	+ (a “+” indicates that the compound has an MIC value of 16 micrograms/ml or less)
NC(N)=NCCCNCc1ccc(-n2cc3cc(-c4cccc(S(=O)(=O)N(CCn5cccc5)C5CCNCC5)c4)[nH]c3nc2=O)cc1 [Compound 1227]	+ (a “+” indicates that the compound has an MIC value of 16 micrograms/ml or less)
CNCc1ccc(-n2cc3cc(-c4ccc(S(=O)(=O)N(CCCc5ccc(O)cc5)C5CCNCC5)cc4)[nH]c3nc2=O)cc1 [Compound 1064]	− (a “−” indicates that the compound has an MIC value greater than 16 micrograms/ml)
N=C(N)NCCCNCc1ccc(-n2cc3cc(-c4cc(CNCCN)cc(OC(F)(F)F)c4)[nH]c3nc2=O)cc1 [Compound 2070a]	+ (a “+” indicates that the compound has an MIC value of 16 micrograms/ml or less)
N=C(N)NCCCNC(=O)c1ccc(-n2cc3cc(-c4ccc(S(=O)(=O)N(CCOc5ccc(F)cc5)C5CCNCC5)cc4)[nH]c3nc2=O)cc1 [Compound 1093]	+ (a “+” indicates that the compound has an MIC value of 16 micrograms/ml or less)
N=C(N)NC1CCN(Cc2ccc(-n3cc4cc(-c5ccc(S(=O)(=O)N(Cc6ccncc6)C6CCNCC6)cc5)[nH]c4nc3=O)cc2)C1 (stereo not shown) [Compound 1178]	+ (a “+” indicates that the compound has an MIC value of 16 micrograms/ml or less)
N=C(N)NOCCNC(=O)c1ccc(-n2cc3cc(-c4ccc(S(=O)(=O)NC5CCNCC5)cc4)[nH]c3nc2=O)cc1 [Compound 1137]	− (a “−” indicates that the compound has an MIC value greater than 16 micrograms/ml)
N=C(N)NCCCNCCCn1cc2cc(-c3ccc(S(=O)(=O)NC4CCNCC4)cc3)[nH]c2nc1=O [Compound 1059]	+ (a “+” indicates that the compound has an MIC value of 16 micrograms/ml or less)

Same assay, conditions: Escherichia coli, ATCC25922, Escherichia coli strain ATCC25922, microdilution; read-out: E. coli ATCC25922 MIC

MIC [µg/mL]	Compound
< 16	CN(C)C(=O)c1cc(-c2cc3cn(-c4ccc(CNCCCNC(=N)N)cc4)c(=O)nc3[nH]2)cc(N2CCNCC2)c1 [Compound 797]
> 16	CNCc1ccc(-n2cc3cc(-c4ccc(S(=O)(=O)N(CCCC5CCCO5)C5CCNCC5)cc4)[nH]c3nc2=O)cc1 (stereo not shown) [Compound 1052]
> 16	O=c1nc2[nH]c(-c3ccc(S(=O)(=O)NC4CCNCC4)cc3)cc2cn1-c1cccc(OCc2c[nH]cn2)c1 [Compound 1188]
< 16	N=C(N)NCCCNCc1ccc(-n2cc3cc(C4CCNC4)[nH]c3nc2=O)cc1 (stereo not shown) [Compound 1229]
< 16	N=C(N)NCCCNCc1ccc(-n2cc3cc([C@H]4C[C@@H](N)[C@@H](CO)O4)[nH]c3nc2=O)cc1 [Compound 1266]
< 16	N=C(N)NCCCNCc1ccc(-n2cc3cc(C4C[C@@H](N)[C@@H](CO)O4)[nH]c3nc2=O)cc1 (stereo partly shown) [Compound 1245]
> 16	NCc1ccc(-n2cc3cc(-c4cccc(CN5CCNCC5)c4)[nH]c3nc2=O)cc1 [Compound 1232]
> 16	NCc1ccc(-n2cc3cc(-c4cccc(S(=O)(=O)N(CCCc5cn[nH]c5)C5CCNCC5)c4)[nH]c3nc2=O)cc1 [Compound 1225]
< 16	NCCCNCc1ccc(-n2cc3cc(-c4ccc(C[C@H](N)CO)cc4)[nH]c3nc2=O)cc1 [Compound 867]
< 16	N=C(N)NCCCNCc1ccc(-n2cc3cc(C4CCN(C(=N)N)C4)[nH]c3nc2=O)cc1 (stereo not shown) [Compound 1230]
> 16	NCc1ccc(-n2cc3cc(-c4ccccc4OCCO)[nH]c3nc2=O)cc1 [Compound 1088]
> 16	NCCCNC(=O)CCn1cc2cc(-c3ccc(S(=O)(=O)N[C@@H]4CCCNC4)cc3)[nH]c2nc1=O [Compound 1287]
> 16	CCCCn1cc(CCN)c2ccc(-n3cc4cc(CCS(=O)(=O)C5CCNCC5)[nH]c4nc3=O)cc21 [Compound 1258]
> 16	NCCCN(CCCN)Cc1ccc(-n2cc3cc(-c4ccc(F)cc4)[nH]c3nc2=O)cc1 [Compound 180]
> 16	NCCCNCc1ccc(-n2cc3cc(CCC4CCCCC4)[nH]c3nc2=O)cc1 [Compound 609]

Compound	MIC [µg/mL]
NCCCN(CCCN)Cc1ccc(-n2cc3cc(-c4ccc(C(=O)NC5CN6CCC5CC6)cc4)[nH]c3nc2=O)cc1 (stereo not shown) [Compound 196]	< 16
